In US11566030B2, “Substituted 2,6-dihydropyrrolo[3,4-c]pyrazoles as pyruvate kinase activators” (priority 2021, dated 2023) one finds AC50 and Emax data, which are given here for 21 compounds.

The assay addresses T1, Human pyruvate kinase R (PKR) (Homo sapiens, UniProt P30613).
T1 construct: Human pyruvate kinase R (PKR), residues 14-574; 6xHis-8xArg-SUMO (N, cleaved yes); host or cells: E. coli
In words: Biochemical assay for activation of pyruvate kinase R (Kinase-Glo luminescence, ATP generation). The settings on record: for Emax: read-out: PKR % activation, maximal activation level achieved with each compound relative to the activation level achieved by AG-348 @ 10 μM. On the procedure: Human pyruvate kinase R (PKR), residues 14-574, and human pyruvate kinase M2, residues 1-531, were cloned into expression plasmids and obtained from ATUM Bio (Newark, Calif.). Proteins were translated as fusions with 6×-His,8×-Arg, and SUMO at the N-terminus. A third construct of human PKR was truncated, residues 50-574, and similarly cloned for use in crystallography experiments. All proteins were cloned, expressed in E. coli, and purified using similar protocols. Cells were grown at 30° C. in Luria-Bertani broth supplemented with 0.4% glucose to OD600=0.8 and induced with 0.4 mM IPTG at 16° C. for 18 hours. Cells were harvested by centrifugation, resuspended in 50 mM potassium phosphate pH 8.0, 500 mM NaCl, 25 mM imidazole pH 8.0, and 3 mM β-mercaptoethanol. Cells were lysed using a LM20 microfluidizer from Microfluidics (Westwood, Mass.). The crude lysate was immediately supplemented with 0.2 mM phenylmethylsulfonyl fluoride (PMSF) and centrifuged at 20,000 g for 20 minutes. The soluble fraction was subsequently incubated with 2 mL Ni-NTA (GE Healthcare) per 1,000 ODs for 1 hour at 4° C. Following incubation with the Ni-NTA resin, lysate was removed by pelleting resin at 2,500 g for 3 minutes and washed 3 times with 9 bed volumes of 50 mM potassium phosphate pH 8.0, 500 mM NaCl, 25 mM imidazole, and 3 mM β-mercaptoethanol. Following the batch wash Ni-NTA resin was loaded onto a gravity column and His-tagged protein was eluted with 6 bed volumes of 10 mM Tris/HCl pH 8.0, 200 mM NaCl, 500 mM imidazole, and 3 mM β-mercaptoethanol. Eluted protein was dialyzed overnight against 10 mM Tris/HCl pH 8.0, 200 mM NaCl, and 1 mM DTT and the 6×-His-8×-Arg-SUMO-tag was cleaved using a 20:1 molar ratio of protein: 3C protease. The protein was purified by anion exchange chromatography on a HiTrapQ or MonoQ 10/100 GL column (GE Healthcare) via a linear NaCl gradient and twice by size exclusion chromatography using a Superdex S200 26/60 column (GE Healthcare) run in 10 mM Tris/HCl pH 8.0, 200 mM NaCl, 10 mM MgCl2, 1 mM DTT. Proteins were concentrated to −12 mg/mL for crystallization and flash frozen for storage.
Biochemical assay for Activation of Pyruvate Kinase R
Activation of pyruvate kinase R (PKR) and pyruvate kinase M2 (PKM2) were measured using a luminescence based measurement of ATP generation and the Kinase-Glo luminescent kinase reagent kit.
On the technique in general: Kinase-Glo measures the ATP left after a reaction by luminescence.

[1] abbreviates: PKR AC50 (nM), 0.1 nM PKR, 0.3 mM ADP, 0.1 mM PEP, 1% DMSO.

The structures appear in SMILES notation. Where two headings read alike, the source gives them in different places.

T1 sequence (P30613 14-574): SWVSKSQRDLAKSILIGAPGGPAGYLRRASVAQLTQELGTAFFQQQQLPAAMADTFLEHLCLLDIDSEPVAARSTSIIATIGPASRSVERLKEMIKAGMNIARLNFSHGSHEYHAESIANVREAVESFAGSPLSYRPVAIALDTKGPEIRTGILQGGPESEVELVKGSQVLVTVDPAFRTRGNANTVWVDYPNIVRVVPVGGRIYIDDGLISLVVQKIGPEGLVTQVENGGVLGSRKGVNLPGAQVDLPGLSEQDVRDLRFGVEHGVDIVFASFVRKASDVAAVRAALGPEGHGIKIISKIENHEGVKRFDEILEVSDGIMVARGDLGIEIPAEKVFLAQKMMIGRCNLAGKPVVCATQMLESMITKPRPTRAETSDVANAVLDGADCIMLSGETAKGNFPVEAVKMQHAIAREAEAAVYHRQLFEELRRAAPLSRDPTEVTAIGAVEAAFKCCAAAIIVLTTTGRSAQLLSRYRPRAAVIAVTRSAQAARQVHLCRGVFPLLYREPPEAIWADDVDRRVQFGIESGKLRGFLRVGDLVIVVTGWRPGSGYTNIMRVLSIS

The AC50 is the concentration at which the activity in the assay is half-maximal. Low readings indicate activity at low concentration, high ones activity only at high concentration. `O=C([C@H](CO)c1ccccc1Cl)N1Cc2cn(S(=O)(=O)c3cnn(CC(F)F)c3)nc2C1` [Compound 9, (2S)-2-(2-chlorophenyl)-1-[2-[1-(2,2-difluoroethyl)pyrazol-4-ylsulfonyl]-4H,6H-pyrrolo[3,4-c]pyrazol-5-yl]-3-hydroxypropan-1-one]: the AC50 was found to be 3 nM and the Emax was 126%.
With `Cc1c(S(=O)(=O)n2cc3c(n2)CN(C(=O)[C@H](CO)c2ccccc2)C3)cnn1CC(F)F` [Compound 11, (2S)-1-(2-{[1-(2,2-difluoroethyl)-5-methyl-1H-pyrazol-4-yl]sulfonyl}-2H,4H,5H,6H-pyrrolo[3,4-c]pyrazol-5-yl)-3-hydroxy-2-phenylpropan-1-one], the AC50 stood at 5.7 nM and the Emax worked out at 92%.
On to `O=C([C@H](CO)c1ccccc1F)N1Cc2cn(S(=O)(=O)c3ccn(CC(F)F)n3)nc2C1` [Compound 12, (2S)-1-(2-{[1-(2,2-difluoroethyl)-1H-pyrazol-3-yl]sulfonyl}-2H,4H,5H,6H-pyrrolo[3,4-c]pyrazol-5-yl)-2-(2-fluorophenyl)-3-hydroxypropan-1-one], for which the Emax came out at 121%. Under setting [1], this compound gave a half-maximal activity concentration (AC50) of 6.9 nM.
For `O=C([C@H](CO)c1ccccc1Cl)N1Cc2cn(S(=O)(=O)c3ccn(CC(F)F)n3)nc2C1` [Compound 13, (2S)-2-(2-chlorophenyl)-1-(2-{[1-(2,2-difluoroethyl)-1H-pyrazol-3-yl]sulfonyl}-2H,4H,5H,6H-pyrrolo[3,4-c]pyrazol-5-yl)-3-hydroxypropan-1-one], the Emax came to 133%. The compound also had an AC50 under setting [1] of 7 nM.
`Cc1c(S(=O)(=O)n2cc3c(n2)CN(C(=O)[C@H](CO)c2ccccc2F)C3)cnn1CC(F)F` [Compound 14, (2S)-1-(2-{[1-(2,2-difluoroethyl)-5-methyl-1H-pyrazol-4-yl]sulfonyl}-2H,4H,5H,6H-pyrrolo[3,4-c]pyrazol-5-yl)-2-(2-fluorophenyl)-3-hydroxypropan-1-one]: the AC50 came out at 7.1 nM and the Emax turned out to be 129%.
Consider `Cc1nc(C)c(S(=O)(=O)n2cc3c(n2)CN(C(=O)[C@H](CO)c2ccccc2)C3)s1` [Compound 15, (2S)-1-{2-[(2,4-dimethyl-1,3-thiazol-5-yl)sulfonyl]-2H,4H,5H,6H-pyrrolo[3,4-c]pyrazol-5-yl}-3-hydroxy-2-phenylpropan-1-one], for which the activity was half-maximal at 44 nM (AC50) and the Emax came to 15%.
`Cc1noc(C)c1S(=O)(=O)n1cc2c(n1)CN(C(=O)[C@H](CO)c1ccccc1)C2` [Compound 16, (2S)-1-{2-[(3,5-dimethyl-1,2-oxazol-4-yl)sulfonyl]-2H,4H,5H,6H-pyrrolo[3,4-c]pyrazol-5-yl}-3-hydroxy-2-phenylpropan-1-one]: the Emax is 55%. In addition, half-maximal activity under setting [1] (AC50) was put at 1000 nM.
In the case of `O=C([C@H](CO)c1ccccc1)N1Cc2cn(S(=O)(=O)c3ccc(CCC(F)(F)F)s3)nc2C1` [Compound 17, (2S)-3-hydroxy-2-phenyl-1-(2-{[5-(3,3,3-trifluoropropyl)thiophen-2-yl]sulfonyl}-2H,4H,5H,6H-pyrrolo[3,4-c]pyrazol-5-yl)propan-1-one], the Emax came out at 23%. The same compound came in with an AC50 under setting [1] of 53 nM.
The matching figures for `O=C([C@H](CO)c1ccccc1)N1Cc2cn(S(=O)(=O)c3ccc(-c4ccccc4)s3)nc2C1` [Compound 18, (2S)-3-hydroxy-2-phenyl-1-{2-[(5-phenylthiophen-2-yl)sulfonyl]-2H,4H,5H,6H-pyrrolo[3,4-c]pyrazol-5-yl}propan-1-one]: 70% and 72 nM.
`O=C([C@H](CO)c1ccccc1)N1Cc2cn(S(=O)(=O)c3ccc(Br)s3)nc2C1` [Compound 19, (2S)-1-{2-[(5-bromothiophen-2-yl)sulfonyl]-2H,4H,5H,6H-pyrrolo[3,4-c]pyrazol-5-yl}-3-hydroxy-2-phenylpropan-1-one]: the Emax is 67%. Under setting [1], this compound gave an AC50 of 19 nM.
As to `Cc1nc(CCC(F)(F)F)sc1S(=O)(=O)n1cc2c(n1)CN(C(=O)[C@H](CO)c1ccccc1)C2` [Compound 20, (2S)-3-hydroxy-1-(2-{[4-methyl-2-(3,3,3-trifluoropropyl)-1,3-thiazol-5-yl]sulfonyl}-2H,4H,5H,6H-pyrrolo[3,4-c]pyrazol-5-yl)-2-phenylpropan-1-one], the AC50 was found to be 720 nM and the Emax came to 7%.
With `CCc1ccc(S(=O)(=O)n2cc3c(n2)CN(C(=O)[C@H](CO)c2ccccc2)C3)s1` [Compound 21, (2S)-1-{2-[(5-ethylthiophen-2-yl)sulfonyl]-2H,4H,5H,6H-pyrrolo[3,4-c]pyrazol-5-yl}-3-hydroxy-2-phenylpropan-1-one], the concentration at half-maximal activity (AC50) turned out to be 16 nM and the Emax was found to be 65%.
`Cc1nc(OCC(F)(F)F)sc1S(=O)(=O)n1cc2c(n1)CN(C(=O)[C@H](CO)c1ccccc1)C2` [Compound 22, (2S)-3-hydroxy-1-(2-{[4-methyl-2-(2,2,2-trifluoroethoxy)-1,3-thiazol-5-yl]sulfonyl}-2H,4H,5H,6H-pyrrolo[3,4-c]pyrazol-5-yl)-2-phenylpropan-1-one]: the Emax amounted to 0%. The compound also yielded an AC50 under setting [1] of 1000 nM.
`COc1nc(C)c(S(=O)(=O)n2cc3c(n2)CN(C(=O)[C@H](CO)c2ccccc2F)C3)s1` [Compound 23, (2S)-2-(2-fluorophenyl)-3-hydroxy-1-{2-[(2-methoxy-4-methyl-1,3-thiazol-5-yl)sulfonyl]-2H,4H,5H,6H-pyrrolo[3,4-c]pyrazol-5-yl}propan-1-one]: the AC50 was 8.6 nM and the Emax stood at 30%.
Turning to `O=C([C@H](CO)c1ccccc1)N1Cc2cn(S(=O)(=O)c3cn(CC(F)F)cn3)nc2C1` [Compound 24, (2S)-1-(2-{[1-(2,2-difluoroethyl)-1H-imidazol-4-yl]sulfonyl}-2H,4H,5H,6H-pyrrolo[3,4-c]pyrazol-5-yl)-3-hydroxy-2-phenylpropan-1-one], the Emax was determined as 93%. Moreover, under setting [1], the activity was half-maximal at 64 nM (AC50).
On to `O=C([C@@H](CO)c1ccccc1F)N1Cc2cn(S(=O)(=O)c3cnn(CC(F)(F)F)c3)nc2C1` [Compound 33, (2R)-2-(2-fluorophenyl)-3-hydroxy-1-[2-[1-(2,2,2-trifluoroethyl)pyrazol-4-ylsulfonyl]-4H,6H-pyrrolo[3,4-c]pyrazol-5-yl]propan-1-one], for which the Emax was 89%. The same compound had an AC50 under setting [1] of 450 nM.
Consider `O=C([C@@H](O)c1ccccc1)N1Cc2cn(S(=O)(=O)c3cnn(CC(F)F)c3)nc2C1` [Compound 34, (2S)-1-[2-[1-(2,2-difluoroethyl)pyrazol-4-ylsulfonyl]-4H,6H-pyrrolo[3,4-c]pyrazol-5-yl]-2-hydroxy-2-phenylethanone], for which the AC50 worked out at 930 nM and the Emax came out at 102%.
`O=C([C@@H](CO)c1ccccc1F)N1Cc2cn(S(=O)(=O)c3cnn(CCF)c3)nc2C1` [Compound 35, (2R)-1-[2-[1-(2-fluoroethyl)pyrazol-4-ylsulfonyl]-4H,6H-pyrrolo[3,4c]pyrazol-5-yl]-2-(2-fluorophenyl)-3-hydroxypropan-1-one]: the Emax was 125%. The compound further returned an AC50 under setting [1] of 130 nM.
With `O=C([C@H](O)c1ccccc1F)N1Cc2cn(S(=O)(=O)c3cnn(CC(F)F)c3)nc2C1` [Compound 36, (2R)-1-[2-[1-(2,2-difluoroethyl)pyrazol-4-ylsulfonyl]-4H,6H-pyrrolo[3,4-c]pyrazol-5-yl]-2-(2-fluorophenyl)-2-hydroxyethanone], the Emax was 85%. Under setting [1], the AC50 turned out to be 23 nM.
With `O=C([C@@H](O)c1ccccc1F)N1Cc2cn(S(=O)(=O)c3cnn(CC(F)F)c3)nc2C1` [Compound 37, (2S)-1-[2-[1-(2,2-difluoroethyl)pyrazol-4-ylsulfonyl]-4H,6H-pyrrolo[3,4-c]pyrazol-5-yl]-2-(2-fluorophenyl)-2-hydroxyethanone], the Emax was determined as 126%. Besides, half-maximal activity under setting [1] (AC50) was put at 960 nM.
The matching figures for `COCCn1ccc(S(=O)(=O)n2cc3c(n2)CN(C(=O)[C@H](CO)c2ccccc2F)C3)n1` [Compound 44, (2S)-2-(2-fluorophenyl)-3-hydroxy-1-[2-[1-(2-methoxyethyl)pyrazol-3-ylsulfonyl]-4H,6H-pyrrolo[3,4-c]pyrazol-5-yl]propan-1-one]: 53% and 110 nM.
